# Test results as given in patent US20230404956A1, “T[…] FOR […]” (Asklepion Pharmaceuticals LLC, priority 2022, published 2023).
# Columns and labels:
# [1] = test system: pediatric patients undergoing surgical procedures involving cardiopulmonary bypass; conditions: 22 patients (11 Tx, 11 PL); Dose 2 100 μmol; cited from earlier work
# nitric oxide production = assay: Nitric oxide production in a murine system, measured via NO metabolites
# Text: It is important to recall that citrulline is regenerated in the last step of NO production, making negative feedback by citrulline a reasonable hypothesis. Alternatively, an acute increase in NO production, which is known to have a negative feedback effect on NOS (Viziri and Wang, 1999) could explain the results. […] The negative clinical effects in the >95% group for the Phase 3 trial may thus result from one or more negative feedback mechanisms. The negative feedback could result from either the effect of NO or the citrulline itself creating feedback on the system.
# [2] = test system: pediatric patients exposed to cardiopulmonary bypass in congenital heart defect surgery; assay: Phase 3 double-blind, placebo-controlled trial of citrulline in congenital heart defect surgery with cardiopulmonary bypass; type: in vivo
# Method: A Phase 3 study was carried out as a double-blind, placebo-controlled trial to confirm the effect. The Phase 3 trial was performed in the US, EU, and Israel, using a modified intent-to-treat population (or modified full analysis set) of 190 patients, of whom 138 were in the US and 52 were ex-US.
# The starting point for the analysis was consideration of the complete modified full analysis set, consisting of all enrolled patients who completed the protocol. […] The Modified Full Analysis Set consists of all enrolled patients who completed the protocol.
# In the study protocol and accompanying pharmacy manual for both studies, citrulline dosing occurs in four distinct phases. Dose 1 is a loading dose added to the cardiopulmonary bypass fluids on a mg/kg basis. Dose 3 is a bolus administered following surgery on a mg/kg basis, and Dose 4 is an IV drip at 9 mg/kg/hour. No variation in administration of these doses was introduced during the course of the phase 3 study.
# In contrast, Dose 2, the intraoperative dosing designed to compensate for ultrafiltration, was subject to some variation. Ultrafiltration during cardiac surgery is not standardized, and therefore, it was not possible to completely standardize this dose. The perfusionist estimates the volume of ultrafiltrate removed, as well as the volume of cardioplegia solution. The perfusionist then calculates according to the study pharmacy manual instructions the amount of citrulline to be administered to compensate for the ultrafiltered citrulline in order to maintain a specified therapeutic level.
# Although the therapeutic target level was set at 100 micromolar during the phase 2 study, because of the potential for variation in Dose 2 (which is given intraoperatively to compensate for the routine ongoing ultrafiltration of circulating bypass fluids to reduce the circulating concentrations of inflammatory mediators) and the concern that some patients might inadvertently receive sub-therapeutic intraoperative levels, the target level for Dose 2 in the phase 3 study was increased to 200 micromolar. This was considered to be safe since no adverse effects of citrulline had been reported, even at substantially higher levels in medical use. In order to examine whether variation in Dose 2 could explain the results obtained, the actual dose received, shown as the percent of the targeted dose, was plotted against the composite variable results. Since placebos received no citrulline, they were plotted at the 0% level.
# For the Phase 3 trial, a target intraoperative dose of […] (Dose 2) was chosen to preclude an inadvertent drop below an efficacious level in any patient. The potential for variation in intraoperative dosing arises from the lack of standardization of cardiopulmonary bypass ultrafiltration techniques. […] Nonetheless, expansion of the study to a greater number of sites raised the concern that some sites might inadvertently underdose Dose 2. Given the known innocuous nature of L-citrulline, an endogenous amino acid that is given medicinally in doses an order of magnitude higher than this to urea cycle disorder patients, as well as the well-tolerated high endogenous concentrations of citrulline in hypercitrullinemia patients, there was no concern for erring on the high side of the presumed effective dose.
# To investigate the data in more detail, patients were stratified according to the dose level actually administered intraoperatively. The values obtained for duration of mechanical ventilation (MV), length of inotrope therapy (InoTx) and the composite primary (created for the SAP, based on the longer of the MV or InoTx) in any patient were segmented into groups based on the percent of the 200 μmol target dose actually received by the patient, by comparing patients who had received <65%, <75%, <85%, <95%, and >95% of the calculated target dose. […] Analysis was performed via two-sided Wilcoxon Rank Sum. […]
smiles,measurement,setting,value
"NC(=O)NCCC[C@H](N)C(=O)O [citrulline, L-citrulline]","Primary parameters (duration of MV & InoTx), treated vs placebo",[1],near-significance
same,Nitric oxide production as measured via NO metabolites,nitric oxide production; continued increase in citrulline concentration,diminished production of NO
same,Nitric oxide production,"nitric oxide production; increasing levels of citrulline, initially",initially facilitate nitric oxide production
same,"Composite (the longer of the MV or InoTx), median","[2]; <65% of target Dose 2, p = 0.0040 vs placebo",1267.0 min
same,"Vent (duration of mechanical ventilation), median","[2]; <65% of target Dose 2, p = 0.0097 vs placebo",139.0 min
same,"Inotrope (duration of inotrope therapy), median","[2]; <65% of target Dose 2, p = 0.0211 vs placebo",1260.0 min
same,"PICU/NICU stay, median","[2]; <65% of target Dose 2, p = 0.0236 vs placebo",2 days
same,"Hospitalization, median","[2]; <65% of target Dose 2, p = 0.0953 vs placebo",4 days
same,"Long-term hospitalizations, citrulline-treated vs placebo",[2]; <75% of calculated Dose 2,fewer long-term hospitalizations
same,"Overall length of hospital stay, citrulline vs placebo",[2]; <75% of calculated Dose 2,not significantly different
same,Reduction of median Composite time vs placebo,[2]; <75% of target Dose 2,42%
same,Reduction of median Inotrope time vs placebo,[2]; <75% of target Dose 2,26%
same,Reduction of median Mechanical Ventilation time vs placebo,[2]; <75% of target Dose 2,70%
same,Reduction of median PICU/NICU stay vs placebo,[2]; <75% of target Dose 2,33%
same,"Composite (the longer of the MV or InoTx), median","[2]; <75% of target Dose 2, p = 0.0025 vs placebo",1267.0 min
same,"Vent (duration of mechanical ventilation), median","[2]; <75% of target Dose 2, p = 0.0129 vs placebo",170.0 min
same,"Inotrope (duration of inotrope therapy), median","[2]; <75% of target Dose 2, p = 0.0158 vs placebo",1260.0 min
same,"PICU/NICU stay, median","[2]; <75% of target Dose 2, p = 0.0295 vs placebo",2 days
same,"Hospitalization, median","[2]; <75% of target Dose 2, p = 0.1905 vs placebo",5 days
same,"Composite (the longer of the MV or InoTx), median","[2]; <85% of target Dose 2, p = 0.0029 vs placebo",1283.5 min
same,"Vent (duration of mechanical ventilation), median","[2]; <85% of target Dose 2, p = 0.0163 vs placebo",176.0 min
same,"Inotrope (duration of inotrope therapy), median","[2]; <85% of target Dose 2, p = 0.0176 vs placebo",1263.5 min
same,"PICU/NICU stay, median","[2]; <85% of target Dose 2, p = 0.0332 vs placebo",2 days
same,"Hospitalization, median","[2]; <85% of target Dose 2, p = 0.1369 vs placebo",5 days
same,"Composite (the longer of the MV or InoTx), median","[2]; <95% of target Dose 2, p = 0.0033 vs placebo",1357.0 min
same,"Inotrope (duration of inotrope therapy), median","[2]; <95% of target Dose 2, p = 0.0242 vs placebo",1300.0 min
same,"Vent (duration of mechanical ventilation), median","[2]; <95% of target Dose 2, p = 0.0459 vs placebo",237.0 min
same,"PICU/NICU stay, median","[2]; <95% of target Dose 2, p = 0.1232 vs placebo",2 days
same,"Hospitalization, median","[2]; <95% of target Dose 2, p = 0.3169 vs placebo",5 days
same,"Hospitalization, median","[2]; >95% of target Dose 2, p = 0.0006 vs placebo",7 days
same,"PICU/NICU stay, median","[2]; >95% of target Dose 2, p = 0.0034 vs placebo",4 days
same,"Vent (duration of mechanical ventilation), median","[2]; >95% of target Dose 2, p = 0.0041 vs placebo",2385.0 min
same,"Inotrope (duration of inotrope therapy), median","[2]; >95% of target Dose 2, p = 0.0069 vs placebo",3142.5 min
same,"Composite (the longer of the MV or InoTx), median","[2]; >95% of target Dose 2, p = 0.0114 vs placebo",3447.0 min
same,"Composite (the longer of the MV or InoTx), median","[2]; All Patients, p = 0.3398 vs placebo (median 2204.0)",1640.0 min
same,"Hospitalization, median","[2]; All Patients, p = 0.3681 vs placebo (median 5)",5 days
same,"Inotrope (duration of inotrope therapy), median","[2]; All Patients, p = 0.7131 vs placebo (median 1717.0)",1514.0 min
same,"PICU/NICU stay, median","[2]; All Patients, p = 0.8484 vs placebo (median 3)",3 days
same,"Vent (duration of mechanical ventilation), median","[2]; All Patients, p = 0.9205 vs placebo (median 574.5)",672.0 min
same,Reduction in the length of stay in the PICU or NICU following surgery,"[2]; Dose 2 at levels <95%, statistically significant",one
same,"Duration of MV, InoTx and composite primary, vs placebo","[2]; all doses under 95% of the target, two-sided Wilcoxon Rank Sum",Statistically significant reduction of all variables
same,"Composite endpoint, treated vs placebo",[2]; complete modified full analysis set,no difference
same,"Effect on composite variable, duration of mechanical ventilation and inotrope therapy vs placebo",[2]; doses higher than 95% of target (>190 μmol),statistically significant negative effect
